Measurements as given in publication PMC3871589, “Evaluation of STAT3 Signaling in ALDH+ and ALDH+/CD44+/CD24− Subpopulations of Breast Cancer Cells” (PLoS ONE, 2013).

Columns and labels:
[1] = biological target: Fes (Homo sapiens, UniProt P07332); assay: Kinase profiler assay, Fes; format: biochemical; details: 10 concentrations, 100 µM highest; Table S3
Procedure: (§1) The effects of LLL12 on twenty six purified human protein kinases were performed at the Millipore UK Limited (Dundee, UK) and Reaction Biology Corp. (Malvern, PA) using the Kinase profiler assay. Assays contained a peptide substrate, purified recombinant human protein kinases to be tested, and gamma-labeled ATP, magnesiumion. Radioactive phosphorylated product was measured and quantitated via a scintillation counter.

[2] = biological target: JAK2 (Homo sapiens, UniProt O60674); assay: Kinase profiler assay, JAK2; format: biochemical; details: 10 concentrations, 100 µM highest; Table S3
JAK2, sequence (O60674 whole entry): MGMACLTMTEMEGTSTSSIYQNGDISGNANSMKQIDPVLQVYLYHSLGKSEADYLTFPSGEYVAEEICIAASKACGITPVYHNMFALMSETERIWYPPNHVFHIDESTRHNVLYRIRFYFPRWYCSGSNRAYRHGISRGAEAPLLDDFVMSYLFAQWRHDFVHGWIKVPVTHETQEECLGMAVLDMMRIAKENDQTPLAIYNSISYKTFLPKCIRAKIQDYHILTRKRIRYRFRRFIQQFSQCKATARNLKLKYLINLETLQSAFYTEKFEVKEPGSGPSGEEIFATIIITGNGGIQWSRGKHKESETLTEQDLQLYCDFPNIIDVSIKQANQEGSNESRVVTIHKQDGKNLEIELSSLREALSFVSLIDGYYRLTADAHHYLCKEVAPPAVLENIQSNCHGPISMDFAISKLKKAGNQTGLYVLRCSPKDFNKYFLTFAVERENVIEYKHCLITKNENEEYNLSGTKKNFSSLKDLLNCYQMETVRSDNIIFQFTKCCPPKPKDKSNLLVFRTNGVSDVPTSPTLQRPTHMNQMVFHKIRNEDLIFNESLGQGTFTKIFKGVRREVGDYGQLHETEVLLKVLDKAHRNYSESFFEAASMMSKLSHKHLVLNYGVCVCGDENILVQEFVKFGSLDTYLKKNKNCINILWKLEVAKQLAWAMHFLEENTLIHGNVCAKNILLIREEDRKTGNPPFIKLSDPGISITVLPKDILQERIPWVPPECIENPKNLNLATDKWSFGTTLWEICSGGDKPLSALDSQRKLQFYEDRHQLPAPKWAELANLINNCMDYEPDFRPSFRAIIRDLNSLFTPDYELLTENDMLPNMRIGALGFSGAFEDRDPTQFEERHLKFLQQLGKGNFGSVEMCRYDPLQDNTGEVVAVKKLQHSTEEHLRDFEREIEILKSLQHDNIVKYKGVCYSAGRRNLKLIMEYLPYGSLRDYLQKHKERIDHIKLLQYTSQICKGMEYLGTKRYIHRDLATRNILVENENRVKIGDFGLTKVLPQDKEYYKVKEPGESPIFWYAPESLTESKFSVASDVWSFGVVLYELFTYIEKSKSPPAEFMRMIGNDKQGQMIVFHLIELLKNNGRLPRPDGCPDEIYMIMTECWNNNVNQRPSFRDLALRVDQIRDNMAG
Procedure: as §1

[3] = biological target: PYK2 (Homo sapiens, UniProt Q14289); assay: Kinase profiler assay, PYK2; format: biochemical; details: 10 concentrations, 100 µM highest; Table S3
PYK2, sequence (Q14289 whole entry): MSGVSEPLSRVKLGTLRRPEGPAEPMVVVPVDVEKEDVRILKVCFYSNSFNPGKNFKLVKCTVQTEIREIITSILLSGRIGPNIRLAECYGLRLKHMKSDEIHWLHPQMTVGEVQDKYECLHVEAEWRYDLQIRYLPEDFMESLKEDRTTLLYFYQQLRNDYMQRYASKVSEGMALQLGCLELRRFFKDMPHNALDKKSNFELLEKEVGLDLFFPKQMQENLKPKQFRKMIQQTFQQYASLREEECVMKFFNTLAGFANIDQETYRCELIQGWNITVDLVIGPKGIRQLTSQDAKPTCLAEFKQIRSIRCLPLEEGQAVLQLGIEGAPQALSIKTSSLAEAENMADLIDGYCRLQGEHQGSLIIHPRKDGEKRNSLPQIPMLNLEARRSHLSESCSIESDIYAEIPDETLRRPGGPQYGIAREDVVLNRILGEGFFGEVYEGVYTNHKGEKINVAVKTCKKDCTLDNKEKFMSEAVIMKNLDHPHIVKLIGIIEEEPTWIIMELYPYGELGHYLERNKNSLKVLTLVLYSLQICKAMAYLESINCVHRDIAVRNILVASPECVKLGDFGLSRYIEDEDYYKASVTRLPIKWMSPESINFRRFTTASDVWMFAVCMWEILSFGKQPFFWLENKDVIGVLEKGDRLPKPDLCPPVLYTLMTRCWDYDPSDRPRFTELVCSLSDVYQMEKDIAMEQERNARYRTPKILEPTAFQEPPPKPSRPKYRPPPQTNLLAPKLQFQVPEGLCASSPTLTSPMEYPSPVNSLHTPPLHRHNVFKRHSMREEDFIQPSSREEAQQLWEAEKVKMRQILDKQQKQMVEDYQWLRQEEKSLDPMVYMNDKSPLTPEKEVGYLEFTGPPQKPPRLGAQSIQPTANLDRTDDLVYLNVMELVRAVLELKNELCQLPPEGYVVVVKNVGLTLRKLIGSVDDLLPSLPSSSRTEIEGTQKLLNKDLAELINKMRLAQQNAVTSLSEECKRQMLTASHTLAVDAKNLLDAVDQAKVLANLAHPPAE
Procedure: as §1

[4] = biological target: AKT1 (Homo sapiens, UniProt P31749); assay: Kinase profiler assay, AKT1; format: biochemical; details: bound stated jointly for the other protein kinases; Table S3
AKT1, sequence (P31749 whole entry): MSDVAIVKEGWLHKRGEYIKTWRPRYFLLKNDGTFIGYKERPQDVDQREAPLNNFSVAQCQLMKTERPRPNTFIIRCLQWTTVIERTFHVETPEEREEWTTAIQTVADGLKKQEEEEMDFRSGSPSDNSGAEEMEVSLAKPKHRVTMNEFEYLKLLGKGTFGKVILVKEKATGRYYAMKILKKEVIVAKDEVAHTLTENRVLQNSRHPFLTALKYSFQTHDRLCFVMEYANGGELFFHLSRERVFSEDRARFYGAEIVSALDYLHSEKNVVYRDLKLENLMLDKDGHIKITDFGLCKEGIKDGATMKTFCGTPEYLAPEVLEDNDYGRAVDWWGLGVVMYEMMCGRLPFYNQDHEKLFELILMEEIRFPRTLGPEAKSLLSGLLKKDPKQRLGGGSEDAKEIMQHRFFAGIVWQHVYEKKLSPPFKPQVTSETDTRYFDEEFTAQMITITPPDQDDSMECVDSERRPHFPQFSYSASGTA
Procedure: as §1

[5] = biological target: mTOR (Homo sapiens, UniProt P42345); assay: Kinase profiler assay, mTOR; format: biochemical; details: bound stated jointly for the other protein kinases; Table S3
Procedure: as §1

[6] = biological target: PDK1 (Homo sapiens, UniProt O15530); assay: Kinase profiler assay, PDK1; format: biochemical; details: bound stated jointly for the other protein kinases; Table S3
PDK1, sequence (O15530 whole entry): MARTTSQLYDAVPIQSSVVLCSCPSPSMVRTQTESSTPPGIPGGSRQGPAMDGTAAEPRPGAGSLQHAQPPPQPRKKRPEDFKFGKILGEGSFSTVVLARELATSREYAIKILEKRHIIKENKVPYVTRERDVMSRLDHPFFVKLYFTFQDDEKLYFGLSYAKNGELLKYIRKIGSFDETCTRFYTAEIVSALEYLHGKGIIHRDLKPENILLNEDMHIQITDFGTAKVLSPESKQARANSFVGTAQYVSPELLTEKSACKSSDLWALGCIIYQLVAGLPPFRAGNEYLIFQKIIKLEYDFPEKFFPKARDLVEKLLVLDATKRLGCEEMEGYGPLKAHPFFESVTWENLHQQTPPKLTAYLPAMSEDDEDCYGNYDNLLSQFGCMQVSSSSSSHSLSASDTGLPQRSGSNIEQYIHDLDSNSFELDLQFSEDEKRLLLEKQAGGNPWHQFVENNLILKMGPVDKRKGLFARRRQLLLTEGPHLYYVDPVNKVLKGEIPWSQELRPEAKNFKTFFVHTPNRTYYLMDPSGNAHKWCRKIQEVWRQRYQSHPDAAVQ
Procedure: as §1

[7] = tested on: STAT3 phosphorylation (Y705); assay: Western blot of STAT3 phosphorylation in un-separated breast cancer cells; format: cell-based, human; details: un-separated MDA-MB-231, SK-BR-3, SUM159 cells, 10 µM, 24 hours
Procedure: (§2) After sorting by flow cytometry, ALDH^+ and ALDH^+/CD44^+/CD24^− stem-like cells were cultured in serum-free stem cell medium in ultra-low attachment six-well plates (Corning) to maintain cancer stem cell characteristics. ALDH^−, ALDH^−/CD44^+/CD24^+cells and un-separated cells were cultured in regular medium and replaced with identical stem cell medium for three days before being harvested. To assess the effects of STAT3 inhibitors, ALDH^+ and ALDH^+/CD44^+/CD24^− subpopulations of breast cancer cells were treated with LLL12 (5 µmol/L) of or static (10 µmol/L) for 24 hours. STAT3, or control GFP shRNA lentivirus (CTL ShRNA) was introduced into ALDH^+ breast cancer stem-like cells for 48 hours, then followed by selection with puromycin (0.2 µg/ml) for 72 hours. Antibodies (Cell Signaling Tech.) against phospho-specific STAT3 (Tyrosine 705) (P-STAT3, Y705), ERK1/2 (Threonine 202/Tyrosine 204), cleaved Poly (ADP-ribose) polymerase (PARP), ALDH1, cleaved caspase-3, and GAPDH were used for western blots.
(§3) LLL12 was synthesized in Dr. Pui-Kai Li’s laboratory (College of Pharmacy, The Ohio State University). Un-separated cells were treated with 10 µM of LLL12 or DMSO for 24 hours, and the phosphorylation of STAT3 (Y705), and ERK 1/2 (T202/Y204), and expression of STAT3 downstream genes, cleaved caspase-3, and PARP were detected by Western blots. (JPG) Click here for additional data file.

[8] = tested on: ERK 1/2 (T202/Y204) phosphorylation; assay: Western blot of ERK phosphorylation in un-separated breast cancer cells; format: cell-based, human; details: 10 µM, 24 hours
Procedure: as §2, §3

[9] = tested on: MDA-MB-231, SK-BR-3, and SUM159 breast cancer cell lines; assay: Apoptosis (cleaved PARP and Caspase-3) in un-separated breast cancer cells; format: cell-based, human; details: un-separated MDA-MB-231, SK-BR-3, SUM159 cells; 10 µM, 24 hours
Procedure: as §2, §3

[10] = tested on: ALDH+ subpopulation of MDA-MB-231, SUM159, and SK-BR-3 cells; assay: Cleaved caspase-3 in ALDH+ cells; format: cell-based, human; details: LLL12 5 µmol/L 24 hours, ShRNA 48 hours then puromycin
Procedure: (§4) The ALDEFLUOR kit (StemCell Technologies) was used to isolate the population with high ALDH enzymatic activity as previously described. Briefly, cells were trypsinized to single cells using 0.05% trypsin and subsequently suspended in ALDEFLUOR assay buffer containing ALDH substrate (BAAA, 1 µmol/l per 1×10^6 cells) and then incubated for 40 minutes at 37°C. For each sample, an aliquot of cells was stained under identical conditions with 15 mmol/L diethylaminobenzaldehyde (DEAB), a specific ALDH inhibitor, as an ALDH^− control. Anti-human PE-CD24 and PE-Cy5-CD44 antibody (BioLegend) were used for CD44/CD24 identification and to separate ALDH^+/CD44^+/CD24^− and ALDH^−/CD44^+/CD24^+ cells when combined with ALDH staining. Analysis was performed using a FACStarPLUS (Becton Dickinion) flow cytometer. To assess the effect of STAT3 inhibitors on the subpopulation of ALDH^+ cells, un-separated breast cancer cells were treated with 5 µmol/L of LLL12 or 10 µmol/L Stattic for 24 hours prior to performing the ALDEFLUOR assay.
(§5) After sorting by flow cytometry, ALDH^+ and ALDH^+/CD44^+/CD24^− stem-like cells were cultured in serum-free stem cell medium in ultra-low attachment six-well plates (Corning) to maintain cancer stem cell characteristics. […]

[11] = tested on: ALDH1; assay: ALDH1 protein expression in ALDH+ cells; format: cell-based, human
Procedure: as §2

[12] = tested on: ALDH+/CD44+/CD24− subpopulation of MDA-MB-231 and SUM159; assay: Caspase-3 cleavage in ALDH+/CD44+/CD24− cells; format: cell-based, human; details: 0.5–5 µM
Procedure: as §4, §5

[13] = tested on: ALDH+/CD44+/CD24− SUM-159 breast cancer stem-like cells; assay: Mouse xenograft of SUM159 ALDH+/CD44+/CD24− cells; format: in vivo, NOD/SCID mice; details: 5 mg/kg IP daily; P<0.05
Procedure: All animal studies were conducted in accordance with the principles and standard procedures approved by IACUC at the Research Institute at Nationwide Children’s Hospital and the University Committee on the Use and Care of Animals at the University of Michigan. ALDH^+ subpopulations of MDA-MB-231 and ALDH^+/CD44^+/CD24^− subpopulations of SUM-159 breast cancer cells (1×10^5) respectively were injected subcutaneous (s.c.) into the flank area of female Non-obese diabetic (NOD)/Severe combined immunodeficiency (SCID) mice which were purchased from Jackson Laboratory.

Fes, sequence (P07332 whole entry): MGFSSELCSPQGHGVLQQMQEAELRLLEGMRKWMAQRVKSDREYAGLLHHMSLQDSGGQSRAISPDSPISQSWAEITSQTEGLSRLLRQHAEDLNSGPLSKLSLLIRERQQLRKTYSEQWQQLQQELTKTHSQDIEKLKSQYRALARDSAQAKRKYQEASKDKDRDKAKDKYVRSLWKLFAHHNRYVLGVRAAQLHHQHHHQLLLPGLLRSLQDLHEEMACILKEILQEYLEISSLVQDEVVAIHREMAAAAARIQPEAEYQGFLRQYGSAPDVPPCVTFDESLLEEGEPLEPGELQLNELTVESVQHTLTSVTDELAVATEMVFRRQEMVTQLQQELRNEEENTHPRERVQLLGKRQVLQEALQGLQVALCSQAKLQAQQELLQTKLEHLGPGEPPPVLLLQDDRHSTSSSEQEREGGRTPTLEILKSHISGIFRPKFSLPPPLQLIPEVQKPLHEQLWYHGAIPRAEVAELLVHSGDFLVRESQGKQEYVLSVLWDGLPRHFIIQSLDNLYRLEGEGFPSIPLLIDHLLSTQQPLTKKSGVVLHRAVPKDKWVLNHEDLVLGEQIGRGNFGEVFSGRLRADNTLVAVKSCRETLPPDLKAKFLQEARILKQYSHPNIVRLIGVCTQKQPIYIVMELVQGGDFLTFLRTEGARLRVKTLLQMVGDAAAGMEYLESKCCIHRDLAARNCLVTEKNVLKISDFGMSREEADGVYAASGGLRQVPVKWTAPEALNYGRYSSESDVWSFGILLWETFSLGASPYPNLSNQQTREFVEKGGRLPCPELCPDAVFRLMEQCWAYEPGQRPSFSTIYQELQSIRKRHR

With `NS(=O)(=O)c1cccc2c1C(=O)c1cccc(O)c1C2=O` [LLL12] the IC50 [1] was > 100 µM, the IC50 [2] was > 100 µM and the IC50 [3] was > 100 µM. The IC50 [4] was ≥ 77.9 µM, the IC50 [5] was ≥ 77.9 µM and the IC50 [6] was ≥ 77.9 µM. For the same compound, the STAT3 phosphorylation [7] was “inhibited”, the “phosphorylation of ERK” value [8] was “did not inhibit” and the “apoptosis (cleaved PARP and Caspase-3)” value [9] was “induced apoptosis”. For the same compound, the “cleaved caspase-3 in ALDH+ cells” value [10] was “induced cleaved caspase-3”, the “expression of ALDH1 protein” value [11] was “down-regulated” and the caspase-3 cleavage [12] was “induced caspase-3 cleavage”. For the same compound, the tumor volume [13] was “significantly suppressed”.
